According to patent publication US20240360178A1, “MACROCYCLIC IMMUNOMODULATORS” (Bristol-Myers Squibb Company, priority 2021, published 2024):
Starred links: 1 amine or outer side, 2 acyl side, 3 side chain; linkers in the order of their positions; H or OH if unused. Positions of bridges follow the written chain, without caps; N, C: chain ends. Non-standard residues stand in square brackets, D forms with d. Residues, ends and D or L forms follow the SMILES beside them. Tyr(3-NO2) = N[C@@H](Cc1ccc(O)c([N+](=O)[O-])c1)C(=O)O; Phe(3-CF3) = N[C@@H](Cc1cccc(C(F)(F)F)c1)C(=O)O; Phe(4-COOH) = N[C@@H](Cc1ccc(C(=O)O)cc1)C(=O)O; Bip = N[C@@H](Cc1ccc(-c2ccccc2)cc1)C(=O)O; dPro(4S-NH2) = N[C@@H]1CN[C@@H](C(=O)O)C1; X1 = O=C([C@H](Cc1ccn[nH]1)N[*:1])[*:2]; hTyr = N[C@@H](CCc1ccc(O)cc1)C(=O)O; NMeF = CN[C@@H](Cc1ccccc1)C(=O)O; 3Pal = N[C@@H](Cc1cccnc1)C(=O)O; Aad = N[C@@H](CCCC(=O)O)C(=O)O; Cha = N[C@@H](CC1CCCCC1)C(=O)O; NMeS = CN[C@@H](CO)C(=O)O; NMeA = CN[C@@H](C)C(=O)O; Nle = CCCC[C@H](N)C(=O)O; dNMeA = CN[C@H](C)C(=O)O; Sar = CNCC(=O)O

What follows are compounds tested against T1, human PD-1 (Jurkat-PD-1 cells) / PE-labeled human PD-L1-Ig (Homo sapiens, UniProt Q15116) (assay: Jurkat-PD-1 Cell Binding High-Content Screening Assay (CBA); Jurkat hPD1-PDL1 assay). Conditions: Jurkat cell line over-expressing human PD-1; PE-labeled PD-L1-Ig 20 nM final; compound incubated 2 hours at 37° C.; read-out: Jurkat HPD1-PDL1 IC50.
T1 construct: expressed in transfected cells; host or cells: Jurkat cell line over-expressing human PD-1
Summary of the method: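 Compound was added to Jurkat-PD-1 cells in DMEM plus 10% fetal calf serum and incubated 2 hours at 37° C. Binding of phycoerythrin-conjugated PD-L1-Ig (20 nM final) to the cells was imaged.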

T1 sequence (Q15116 25-288): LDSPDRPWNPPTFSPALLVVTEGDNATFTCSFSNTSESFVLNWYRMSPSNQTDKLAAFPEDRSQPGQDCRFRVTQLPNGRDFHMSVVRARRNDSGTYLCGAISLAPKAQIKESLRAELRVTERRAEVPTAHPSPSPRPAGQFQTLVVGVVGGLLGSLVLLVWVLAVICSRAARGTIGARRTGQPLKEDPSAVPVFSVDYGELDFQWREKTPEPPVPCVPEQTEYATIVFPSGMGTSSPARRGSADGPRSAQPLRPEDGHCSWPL

| Structure (SMILES) | IC50 [nM] |
| --- | --- |
| CC(C)C[C@@H]1NC(=O)[C@H](CCCNC(=N)N)NC(=O)[C@H](Cc2ccccc2)N(C)C(=O)[C@H](C)N(C)C(=O)[C@H](CCCNC(=N)N)NC(=O)[C@H](Cc2ccc(-c3ccccc3)cc2)NC(=O)[C@H](C(C)C)NC(=O)[C@H](Cc2c[nH]c3ccccc23)NC(=O)[C@H](CC(=O)O)NC(=O)[C@H](Cc2ccc(O)cc2)NC(=O)[C@H](Cc2ccccc2)NC(=O)CSC[C@@H](C(=O)N[C@@H](CO)C(N)=O)NC(=O)[C@H](CO)NC(=O)[C@H](C(C)C)NC1=O [Example 1083] ({CH2CO}-FYDWV[Bip]R[NMeA][NMeF]RLVSCS-NH2; thioether N-14) | 240 |
| CC(C)C[C@@H]1NC(=O)[C@H](Cc2c[nH]c3ccccc23)NC(=O)[C@H](CC(=O)O)NC(=O)[C@H](Cc2ccc(O)cc2)NC(=O)[C@H](Cc2ccccc2)NC(=O)CSC[C@@H](C(=O)NCC(N)=O)NC(=O)[C@H](CO)NC(=O)[C@H](C(C)C)NC(=O)[C@H](CC(C)C)NC(=O)[C@H](CC(N)=O)NC(=O)[C@H](CO)N(C)C(=O)[C@H](C)N(C)C(=O)[C@H](C(C)C)NC(=O)[C@H](Cc2ccc(-c3ccccc3)cc2)NC1=O [Example 1084] ({CH2CO}-FYDWL[Bip]V[NMeA][NMeS]NLVSCG-NH2; thioether N-14) | 240 |
| CC(C)C[C@@H]1NC(=O)[C@H](C)NC(=O)[C@H]2CCCN2C(=O)[C@H](C)N(C)C(=O)[C@H](CCC(=O)O)NC(=O)[C@H](Cc2ccc(-c3ccccc3)cc2)NC(=O)[C@H](CC(C)C)NC(=O)[C@H](Cc2c[nH]c3ccccc23)NC(=O)[C@H](CC(=O)O)NC(=O)[C@H](Cc2ccc(C(=O)O)cc2)NC(=O)[C@H](Cc2cccnc2)NC(=O)CSC[C@@H](C(=O)N[C@@H](C)C(N)=O)NC(=O)[C@H](CO)NC(=O)[C@H](C(C)C)NC1=O [Example 1085] ({CH2CO}-[3Pal][Phe(4-COOH)]DWL[Bip]E[NMeA][dP]ALVSCA-NH2; thioether N-14) | 240 |
| CC(C)C[C@@H]1NC(=O)[C@H](Cc2ccccc2)NC(=O)[C@H](CC(=O)O)NC(=O)[C@H](Cc2ccc(O)cc2)NC(=O)[C@H](Cc2ccccc2)NC(=O)CSC[C@@H](C(=O)NCC(N)=O)NC(=O)[C@H](CO)NC(=O)[C@H](C(C)C)NC(=O)[C@H](CC(C)C)NC(=O)[C@H](CC(N)=O)NC(=O)CN(C)C(=O)[C@H](C)N(C)C(=O)[C@H](C(C)C)NC(=O)[C@H](Cc2ccc(-c3ccccc3)cc2)NC1=O [Example 1088] ({CH2CO}-FYDFL[Bip]V[NMeA][Sar]NLVSCG-NH2; thioether N-14) | 250 |
| CC(C)C[C@@H]1NC(=O)[C@H](Cc2c[nH]c3ccccc23)NC(=O)[C@H](CC(=O)O)NC(=O)[C@H](Cc2ccc(O)cc2)NC(=O)[C@H](Cc2ccccc2)NC(=O)CSC[C@@H](C(=O)N[C@@H](C)C(N)=O)NC(=O)[C@H]([C@@H](C)O)NC(=O)[C@H](CCCCN)NC(=O)[C@H](CC(C)C)NC(=O)[C@H](CC(N)=O)NC(=O)[C@H]2CCCN2C(=O)[C@H](C)N(C)C(=O)[C@H](C(C)C)NC(=O)[C@H](Cc2ccc(-c3ccccc3)cc2)NC1=O [Example 1089] ({CH2CO}-FYDWL[Bip]V[NMeA][dP]NLKTCA-NH2; thioether N-14) | 250 |
| CC(C)C[C@@H]1NC(=O)[C@H](Cc2c[nH]c3ccccc23)NC(=O)[C@H](CC(=O)O)NC(=O)[C@H](Cc2ccc(O)cc2)NC(=O)[C@H](Cc2ccccc2)NC(=O)CSC[C@@H](C(=O)N[C@@H](C)C(N)=O)NC(=O)[C@H](CO)NC(=O)[C@H](C(C)C)NC(=O)[C@H](CC(C)C)NC(=O)[C@H](CC(N)=O)NC(=O)[C@H]2C[C@H](N)CN2C(=O)[C@H](C)N(C)C(=O)[C@H](C(C)C)NC(=O)[C@H](Cc2ccc(-c3ccccc3)cc2)NC1=O [Example 1091] ({CH2CO}-FYDWL[Bip]V[NMeA][dPro(4S-NH2)]NLVSCA-NH2; thioether N-14) | 260 |
| CC(C)C[C@@H]1NC(=O)[C@H](Cc2c[nH]c3ccccc23)NC(=O)[C@H](CC(=O)O)NC(=O)[C@H](Cc2ccc(O)cc2)NC(=O)[C@H](Cc2ccn[nH]2)NC(=O)CSC[C@@H](C(=O)N[C@@H](C)C(N)=O)NC(=O)[C@H](CO)NC(=O)[C@H](C(C)C)NC(=O)[C@H](CC(C)C)NC(=O)[C@H](CC(N)=O)NC(=O)CN(C)C(=O)[C@H](C)N(C)C(=O)[C@H](C(C)C)NC(=O)[C@H](Cc2ccc(-c3ccccc3)cc2)NC1=O [Example 1094] ({CH2CO}-[X1]YDWL[Bip]V[NMeA][Sar]NLVSCA-NH2; thioether N-14) | 280 |
| CC(C)C[C@@H]1NC(=O)[C@H](Cc2c[nH]c3ccccc23)NC(=O)[C@H](CC(=O)O)NC(=O)[C@H](Cc2ccc(O)cc2)NC(=O)[C@H](Cc2ccccc2)NC(=O)CSC[C@@H](C(=O)N[C@@H](C)C(N)=O)NC(=O)[C@H](CO)NC(=O)[C@H](C(C)C)NC(=O)[C@H](CC(C)C)NC(=O)[C@H](CCCNC(=N)N)NC(=O)[C@H]2CCCN2C(=O)[C@H](C)N(C)C(=O)[C@H](CCCNC(=N)N)NC(=O)[C@H](Cc2ccc(-c3ccccc3)cc2)NC1=O [Example 1096] ({CH2CO}-FYDWL[Bip]R[NMeA][dP]RLVSCA-NH2; thioether N-14) | 280 |
| CCCC[C@@H]1NC(=O)[C@H](CC(N)=O)NC(=O)[C@H]2CCCN2C(=O)[C@H](C)N(C)C(=O)[C@H](C(C)C)NC(=O)[C@H](Cc2ccc(-c3ccccc3)cc2)NC(=O)[C@H](CC(C)C)NC(=O)[C@H](Cc2c[nH]c3ccccc23)NC(=O)[C@H](CC(=O)O)NC(=O)[C@H](Cc2ccc(O)cc2)NC(=O)[C@H](Cc2ccccc2)NC(=O)CSC[C@@H](C(=O)N[C@@H](C)C(N)=O)NC(=O)[C@H]([C@@H](C)O)NC(=O)[C@H](C(C)C)NC1=O [Example 1097] ({CH2CO}-FYDWL[Bip]V[NMeA][dP]N[Nle]VTCA-NH2; thioether N-14) | 280 |

Further compounds by falling IC50, results first:

| IC50 [nM] | Structure (SMILES) |
| --- | --- |
| 280 | CC(C)C[C@@H]1NC(=O)[C@H](Cc2c[nH]c3ccccc23)NC(=O)[C@H](CC(=O)O)NC(=O)[C@H](Cc2ccc(O)cc2)NC(=O)[C@H](Cc2ccccc2)NC(=O)CSC[C@@H](C(=O)N[C@@H](C)C(N)=O)NC(=O)[C@H](CO)NC(=O)[C@H](C(C)C)NC(=O)[C@H](CC(C)C)NC(=O)[C@H](CC(N)=O)NC(=O)[C@H](Cc2ccccc2)N(C)C(=O)[C@H](C)N(C)C(=O)[C@H](CCCNC(=N)N)NC(=O)[C@H](Cc2ccc(-c3ccccc3)cc2)NC1=O [Example 1095] ({CH2CO}-FYDWL[Bip]R[NMeA][NMeF]NLVSCA-NH2; thioether N-14) |
| 270 | CC(C)C[C@@H]1NC(=O)[C@H](Cc2c[nH]c3ccccc23)NC(=O)[C@H](CC(=O)O)NC(=O)[C@H](Cc2ccc(O)cc2)NC(=O)[C@H](Cc2ccccc2)NC(=O)CSC[C@@H](C(=O)N[C@@H](C)C(N)=O)NC(=O)[C@H](CO)NC(=O)[C@H](C(C)C)NC(=O)[C@H](CC2CCCCC2)NC(=O)[C@H](CC(N)=O)NC(=O)CN(C)C(=O)[C@H](C)N(C)C(=O)[C@H](C(C)C)NC(=O)[C@H](Cc2ccc(-c3ccccc3)cc2)NC1=O [Example 1093] ({CH2CO}-FYDWL[Bip]V[NMeA][Sar]N[Cha]VSCA-NH2; thioether N-14) |
| 260 | CC(C)C[C@@H]1NC(=O)[C@H](Cc2c[nH]c3ccccc23)NC(=O)[C@H](CC(=O)O)NC(=O)[C@H](Cc2ccc(O)cc2)NC(=O)[C@H](Cc2ccccc2)NC(=O)CSC[C@@H](C(=O)N[C@@H](C)C(N)=O)NC(=O)[C@H](CO)NC(=O)[C@H](C(C)C)NC(=O)[C@H](CC(C)C)NC(=O)[C@H](CC(N)=O)NC(=O)CN(C)C(=O)[C@H](C)N(C)C(=O)[C@H](CCCC(=O)O)NC(=O)[C@H](Cc2ccc(-c3ccccc3)cc2)NC1=O [Example 1092] ({CH2CO}-FYDWL[Bip][Aad][NMeA][Sar]NLVSCA-NH2; thioether N-14) |
| 250 | CC(C)C[C@@H]1NC(=O)[C@H](Cc2c[nH]c3ccccc23)NC(=O)[C@H](CC(=O)O)NC(=O)[C@H](CCc2ccc(O)cc2)NC(=O)[C@H](Cc2ccccc2)NC(=O)CSC[C@@H](C(=O)N[C@@H](C)C(N)=O)NC(=O)[C@H](CO)NC(=O)[C@H](C(C)C)NC(=O)[C@H](CC(C)C)NC(=O)[C@H](CC(N)=O)NC(=O)CN(C)C(=O)[C@H](C)N(C)C(=O)[C@H](C(C)C)NC(=O)[C@H](Cc2ccc(-c3ccccc3)cc2)NC1=O [Example 1086] ({CH2CO}-F[hTyr]DWL[Bip]V[NMeA][Sar]NLVSCA-NH2; thioether N-14) |
| 250 | CC(C)C[C@@H]1NC(=O)[C@H](Cc2c[nH]c3ccccc23)NC(=O)[C@H](CC(=O)O)NC(=O)[C@H](Cc2ccc(O)c([N+](=O)[O-])c2)NC(=O)[C@H](Cc2ccccc2)NC(=O)CSC[C@@H](C(=O)N[C@@H](C)C(N)=O)NC(=O)[C@H](CO)NC(=O)[C@H](C(C)C)NC(=O)[C@H](CC(C)C)NC(=O)[C@H](CC(N)=O)NC(=O)CN(C)C(=O)[C@H](C)N(C)C(=O)[C@H](C(C)C)NC(=O)[C@H](Cc2ccc(-c3ccccc3)cc2)NC1=O [Example 1087] ({CH2CO}-F[Tyr(3-NO2)]DWL[Bip]V[NMeA][Sar]NLVSCA-NH2; thioether N-14) |
| 230 | CC(C)C[C@@H]1NC(=O)[C@H](Cc2cccc(C(F)(F)F)c2)NC(=O)[C@H](CC(=O)O)NC(=O)[C@H](Cc2ccc(O)cc2)NC(=O)[C@H](Cc2ccccc2)NC(=O)CSC[C@@H](C(=O)N[C@@H](C)C(N)=O)NC(=O)[C@H](CO)NC(=O)[C@H](C(C)C)NC(=O)[C@H](CC(C)C)NC(=O)[C@H](CC(N)=O)NC(=O)CN(C)C(=O)[C@H](C)N(C)C(=O)[C@H](C(C)C)NC(=O)[C@H](Cc2ccc(-c3ccccc3)cc2)NC1=O [Example 1081] ({CH2CO}-FYD[Phe(3-CF3)]L[Bip]V[NMeA][Sar]NLVSCA-NH2; thioether N-14) |
| 230 | CC(C)C[C@@H]1NC(=O)[C@H](Cc2c[nH]c3ccccc23)NC(=O)[C@H](CC(=O)O)NC(=O)[C@H](Cc2ccc(O)cc2)NC(=O)[C@H](Cc2ccccc2)NC(=O)CSC[C@@H](C(=O)NCC(N)=O)NC(=O)[C@H](CO)NC(=O)[C@H](C(C)C)NC(=O)[C@H](CC(C)C)NC(=O)[C@H](CC(N)=O)NC(=O)[C@@H](C)N(C)C(=O)[C@H](C)N(C)C(=O)[C@H](C(C)C)NC(=O)[C@H](Cc2ccc(-c3ccccc3)cc2)NC1=O [Example 1082] ({CH2CO}-FYDWL[Bip]V[NMeA][dNMeA]NLVSCG-NH2; thioether N-14) |
